Measurements taken from the supplement of paper PMC11208160.

Test: recombinant UMI read abundance after kanamycin selection (control-corrected) (log10(CPM+1)); higher = more efficient recombination; extreme values may be limits of the assay; sequences stand for … in AGTGCAGAGAAAATCGGCCAGTTTTCTCTGCCTGCAGTCCGCATGCCGTGGGACCCCTTGGGTTCTAACCTGTTGCCTAGATTTATGCAGCGGACTGCCTTTCTCCCAAAGTGATAAACCGG…AGGTTGGTTTCACT; site = the 11-nt donor
Procedure, shortened: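 Each donor and donor-binding-loop pair was tracked by a 12-nt UMI on a plasmid carrying a promoterless kanamycin gene. With a second plasmid supplying a fixed target and T7-inducible IS621 bridge recombinase, the pool was plated in Escherichia coli on IPTG (0.07 mM) plus kanamycin or unselected. Sequencing of recombinant UMIs across the donor–target junction gave counts expressed as log10(CPM+1) after replicate averaging and control-derived scaling.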
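Further: IS621 bridge recombinase in Escherichia coli cells against a fixed T5 target plasmid.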

| Sequence | recombinant UMI read abundance (log10) |
| --- | --- |
| CGCTCATCATGGACCGGTTTTCCCGGTAATCCGTATTTGCG (site CGATCATCTAG) | 0 |
| CGCTCATCATGGACCGGTTTTCCCGGTAATCCGTATTTGCG (site CGCTCATCTCG) | 0.716 |
| CGCTCATCATGGACCGGTTTTCCCGGTAATCCGTATTTGCT (site CGATCATCTAG) | 0 |
| CGCTCATCATGGACCGGTTTTCCCGGTAATCCGTATTTGCT (site CGCTCATCTAG) | 2.6 |
| CGCTCATCATGGACCGGTTTTCCCGGTAATCCGTATTTGCT (site CGGTCATCTAG) | 0 |
| CGCTCATCATGGACCGGTTTTCCCGGTAATCCGTATTTGCT (site CGTTCATCTAG) | 1.35 |
| CGCTCGACATGGACCGGTTTTCCCGGTAATCCGTATTTGTT (site CGATCGACTAA) | 0 |
| CGCTCGACATGGACCGGTTTTCCCGGTAATCCGTATTTGTT (site CGCTCGACTAA) | 0 |
| CGCTCGACATGGACCGGTTTTCCCGGTAATCCGTATTTGTT (site CGGTCGACTAA) | 0 |
| CGCTCGACATGGACCGGTTTTCCCGGTAATCCGTATTTGTT (site CGTTCGACTAA) | 0 |
| CGCTGGCCATGGACCGGTTTTCCCGGTAATCCGTATTTGCT (site CGCTGGCCTAG) | 0.278 |
| CGCTTGGCATGGACCGGTTTTCCCGGTAATCCGTATTTGCT (site CGATTGGCTAG) | 0 |
| CGCTTGGCATGGACCGGTTTTCCCGGTAATCCGTATTTGCT (site CGCTTGGCTAG) | 0 |
| CGCTTGGCATGGACCGGTTTTCCCGGTAATCCGTATTTGCT (site CGGTTGGCTAG) | 0 |
| CGCTTGGCATGGACCGGTTTTCCCGGTAATCCGTATTTGCT (site CGTTTGGCTAG) | 0 |
| CGCTTGTCATGGACCGGTTTTCCCGGTAATCCGTATTTGCG (site CGCTTGTCTCG) | 1.46 |
| CGGAAATCATGGACCGGTTTTCCCGGTAATCCGTATTTGCT (site CGGAAATCTAG) | 2.06 |
| CGGAAATCATGGACCGGTTTTCCCGGTAATCCGTATTTGCT (site CGGACATCTAG) | 0.293 |
| CGGAAATCATGGACCGGTTTTCCCGGTAATCCGTATTTGCT (site CGGAGATCTAG) | 0.215 |
| CGGAAATCATGGACCGGTTTTCCCGGTAATCCGTATTTGCT (site CGGATATCTAG) | 0 |
| CGGAACGCATGGACCGGTTTTCCCGGTAATCCGTATTTGTT (site CGGAACGCTAA) | 3.15 |
| CGGAACGCATGGACCGGTTTTCCCGGTAATCCGTATTTGTT (site CGGAATCCTAA) | 0.0213 |
| CGGAAGACATGGACCGGTTTTCCCGGTAATCCGTATTTGTT (site CGGAAGACTAA) | 2.3 |
| CGGAAGACATGGACCGGTTTTCCCGGTAATCCGTATTTGTT (site CGGAATCCTAA) | 0.00737 |
| CGGAAGCCATGGACCGGTTTTCCCGGTAATCCGTATTTGAT (site CGGAAGCCTAT) | 0.713 |

| Sequence | recombinant UMI read abundance (log10) |
| --- | --- |
| CGGAAGCCATGGACCGGTTTTCCCGGTAATCCGTATTTGAT (site CGGAATCCTAA) | 0 |
| CGGAAGCCATGGACCGGTTTTCCCGGTAATCCGTATTTGCA (site AGGAAGACTTG) | 0 |
| CGGAAGCCATGGACCGGTTTTCCCGGTAATCCGTATTTGCA (site CGGAAGCCTTG) | 0 |
| CGGAATCCATGGACCGGTTTTCCCGGTAATCCGTATTTGCA (site CGGAATCCTAA) | 0 |
| CGGAATCCATGGACCGGTTTTCCCGGTAATCCGTATTTGCA (site CGGAATCCTTG) | 0.628 |
| CGGAATTCATGGACCGGTTTTCCCGGTAATCCGTATTTGAA (site CGGAATTCTTT) | 1.67 |
| CGGAATTCATGGACCGGTTTTCCCGGTAATCCGTATTTGTA (site CGGAATCCTAA) | 0.00369 |
| CGGAATTCATGGACCGGTTTTCCCGGTAATCCGTATTTGTA (site CGGAATTCTTA) | 2.78 |
| CGGACAACATGGACCGGTTTTCCCGGTAATCCGTATTTGCT (site CGGACAACTAG) | 1.89 |
| CGGACAACATGGACCGGTTTTCCCGGTAATCCGTATTTGCT (site CGGACACCTAG) | 0 |
| CGGACAACATGGACCGGTTTTCCCGGTAATCCGTATTTGCT (site CGGACAGCTAG) | 0.34 |
| CGGACAACATGGACCGGTTTTCCCGGTAATCCGTATTTGCT (site CGGACATCTAG) | 2.39 |
| CGGACATCATGGACCGGTTTTCCCGGTAATCCGTATTTGCA (site CGGACATCTAG) | 0 |
| CGGACATCATGGACCGGTTTTCCCGGTAATCCGTATTTGCA (site CGGACATCTCG) | 0 |
| CGGACATCATGGACCGGTTTTCCCGGTAATCCGTATTTGCA (site CGGACATCTGG) | 0 |
| CGGACATCATGGACCGGTTTTCCCGGTAATCCGTATTTGCA (site CGGACATCTTG) | 2.76 |
| CGGACATCATGGACCGGTTTTCCCGGTAATCCGTATTTGGT (site CGGACATCTAA) | 0.416 |
| CGGACATCATGGACCGGTTTTCCCGGTAATCCGTATTTGGT (site CGGACATCTAC) | 2.13 |
| CGGACATCATGGACCGGTTTTCCCGGTAATCCGTATTTGGT (site CGGACATCTAG) | 0 |
| CGGACATCATGGACCGGTTTTCCCGGTAATCCGTATTTGGT (site CGGACATCTAT) | 1.15 |
| CGGACCTCATGGACCGGTTTTCCCGGTAATCCGTATTTGCT (site CGGACATCTAG) | 0.00704 |
| CGGACCTCATGGACCGGTTTTCCCGGTAATCCGTATTTGCT (site CGGACCTCTAG) | 3.12 |
| CGGACCTCATGGACCGGTTTTCCCGGTAATCCGTATTTGCT (site CGGACGTCTAG) | 0.00745 |
| CGGACCTCATGGACCGGTTTTCCCGGTAATCCGTATTTGCT (site CGGACTTCTAG) | 0 |
| CGGACGTCATGGACCGGTTTTCCCGGTAATCCGTATTTGCT (site CGGACATCTAG) | 2.54 |

| Sequence | recombinant UMI read abundance (log10) |
| --- | --- |
| CGGACGTCATGGACCGGTTTTCCCGGTAATCCGTATTTGCT (site CGGACCTCTAG) | 0 |
| CGGACGTCATGGACCGGTTTTCCCGGTAATCCGTATTTGCT (site CGGACGTCTAG) | 3.06 |
| CGGACGTCATGGACCGGTTTTCCCGGTAATCCGTATTTGCT (site CGGACTTCTAG) | 0.597 |
| CGGACTACATGGACCGGTTTTCCCGGTAATCCGTATTTGAC (site AGGACTACTGT) | 0 |
| CGGACTACATGGACCGGTTTTCCCGGTAATCCGTATTTGAC (site CGGACTACTGT) | 2.98 |
| CGGACTACATGGACCGGTTTTCCCGGTAATCCGTATTTGAC (site GGGACTACTGT) | 0 |
| CGGACTACATGGACCGGTTTTCCCGGTAATCCGTATTTGAC (site TGGACTACTGT) | 1.51 |
| CGGACTCCATGGACCGGTTTTCCCGGTAATCCGTATTTGGT (site CGGAATCCTAA) | 0.00968 |
| CGGACTCCATGGACCGGTTTTCCCGGTAATCCGTATTTGGT (site CGGACTCCTAC) | 0.215 |
| CGGAGAGCATGGACCGGTTTTCCCGGTAATCCGTATTTGAA (site CGGAGAGCTTT) | 2.27 |
| CGGAGCACATGGACCGGTTTTCCCGGTAATCCGTATTTGCA (site CGGAGCACTTG) | 2.66 |
| CGGAGGACATGGACCGGTTTTCCCGGTAATCCGTATTTGCA (site AGGAAGACTTG) | 0 |
| CGGAGGACATGGACCGGTTTTCCCGGTAATCCGTATTTGCA (site CGGAGGACTTG) | 2.78 |
| CGGAGGCCATGGACCGGTTTTCCCGGTAATCCGTATTTGTT (site CGGAATCCTAA) | 0.00304 |
| CGGAGGCCATGGACCGGTTTTCCCGGTAATCCGTATTTGTT (site CGGAGGCCTAA) | 0 |
| CGGATAGCATGGACCGGTTTTCCCGGTAATCCGTATTTGTT (site CGGATAGCTAA) | 2 |
| CGGCATCCATGGACCGGTTTTCCCGGTAATCCGTATTTGTG (site CGGAATCCTAA) | 0 |
| CGGCATCCATGGACCGGTTTTCCCGGTAATCCGTATTTGTG (site CGGCATCCTCA) | 0.644 |
| CGGCCGGCATGGACCGGTTTTCCCGGTAATCCGTATTTGGC (site AGGCCGGCTGC) | 0 |
| CGGCCGGCATGGACCGGTTTTCCCGGTAATCCGTATTTGGC (site CGGCCGGCTGC) | 1.21 |
| CGGCCGGCATGGACCGGTTTTCCCGGTAATCCGTATTTGGC (site GGGCCGGCTGC) | 0 |
| CGGCCGGCATGGACCGGTTTTCCCGGTAATCCGTATTTGGC (site TGGCCGGCTGC) | 0 |
| CGGCGCACATGGACCGGTTTTCCCGGTAATCCGTATTTGTA (site CGGCGCACTTA) | 1.57 |
| CGGCTACCATGGACCGGTTTTCCCGGTAATCCGTATTTGCT (site CAGCTACCTAG) | 0 |
| CGGCTACCATGGACCGGTTTTCCCGGTAATCCGTATTTGCT (site CCGCTACCTAG) | 0 |
